Reference: a melting point compilation (Tetko et al.)

| SMILES | melting point |
| --- | --- |
| Cc1c(CCl)cc(C(=O)O)cc1CCl | 157 to 159 °C |
| Cc1cc(C)c(C(=O)CCl)c(C)c1C | 61 to 63 °C |
| Cc1nn(-c2ccc(F)cc2)c(Cl)c1CO | 134 to 136 °C |
| CC(C)(C)OC(=O)N1CC(=O)NC2CNCCC21 (stereo unspecified) | 144 to 146 °C |
| CC(C)(C)c1nnn[nH]1 | 203 to 205 °C |
| NS(=O)(=O)c1ccc([N+](=O)[O-])cc1[N+](=O)[O-] | 149 to 151 °C |
| CNS(=O)(=O)c1cc(/C=C/C(=O)O)ccc1OC | 238 to 240 °C |
| O=C1NC(=O)N(CCc2cccs2)C1=O | 118 to 120 °C |
| Cc1nnc(-c2ccc(N)cc2)o1 | 195 to 197 °C |
| N#Cc1cc(Cl)nc2ccc([N+](=O)[O-])cc12 | 173 to 175 °C |
| Sc1nc(-c2ccc3c(c2)OCCO3)n[nH]1 | 282 to 284 °C |
| O=C(O)c1ccnc(Cl)c1F | 194 to 196 °C |
| Cn1ccc(C(=O)c2ccc(F)cc2)n1 | 68 to 70 °C |
| COc1cc2nc(C)sc2cc1N | 89 to 91 °C |
| FC(F)(F)c1ccccc1Nc1nnc(S)s1 | 197 to 199 °C |
| CCOc1cc(C=O)cc(Br)c1OCc1ccccc1 | 55 to 57 °C |
| N#Cc1c([N+](=O)[O-])cccc1S(=O)(=O)Cl | 89 to 91 °C |
| O=[N+]([O-])c1ccc(Cl)c2c1CCCN2 | 93 to 95 °C |
| NNc1cccc(C(F)(F)F)n1 | 62 to 64 °C |
| CN(C)c1cccc(-c2nnc(N)o2)c1 | 175 to 177 °C |
| c1ccc(COc2ccc3cn[nH]c3c2)cc1 | 166 to 168 °C |
| NC(Cc1c[nH]c2ccc([N+](=O)[O-])cc12)C(=O)O (stereo unspecified) | 259 to 261 °C |
| Cc1nn(C2CCS(=O)(=O)C2)c2ncc(C=O)cc12 (stereo unspecified) | 149 to 151 °C |
| CC(C)(CC(=O)c1ccc(Cl)cc1)C(=O)O | 147 to 149 °C |

| SMILES | melting point |
| --- | --- |
| Nc1cccc(C(=O)NCC(F)(F)F)c1 | 118 to 120 °C |
| Cn1cnnc1Sc1ccc(Br)cc1N | 144 to 146 °C |
| NCc1cccc(NC(=O)c2ccc(F)cc2)c1 | 132 to 134 °C |
| C#CCNC(=O)CN1C(=O)C(=O)c2cc(Cl)ccc21 | 267 to 269 °C |
| CCOC(=O)N1CCCC(C(=O)O)C1 (stereo unspecified) | 68 to 70 °C |
| CCOC(=O)c1ncn(-c2ccc(C)cc2)c1N | 246 to 248 °C |
| CCOc1cc(Br)c(CC(=O)O)cc1OCC | 128 to 129 °C |
| CC(C)Cn1cc(C(F)F)c(C(=O)O)n1 | 94 to 96 °C |
| Cc1cc(-c2nnc(CCl)o2)c(C)o1 | 62 to 64 °C |
| CN1CCN(c2ccc(C(F)(F)F)cc2N)CC1 | 178 to 180 °C |
| Cc1cc(S(N)(=O)=O)sc1C(=O)O | 249 to 251 °C |
| Cc1c(O)ccc2c(CCl)cc(=O)oc12 | 268 to 270 °C |
| COc1ccc(S(N)(=O)=O)cc1C(=O)O | 224 to 226 °C |
| CC(=O)N1CCCCC1C(=O)O (stereo unspecified) | 137 to 139 °C |
| CC1(c2cccc(C(N)=O)c2)NC(=O)NC1=O (stereo unspecified) | 225 to 227 °C |
| CCc1nnc(S)n1C | 138 to 140 °C |
| COc1ccc(NS(=O)(=O)c2ccc(N3CCCC3)c(N)c2)cc1 | 40 to 42 °C |
| Cc1cc(NC(=O)OC(C)(C)C)ccc1N | 103 to 105 °C |
| Cc1nc(O)ccc1Br | 199 to 201 °C |
| NC1(C(=O)O)CCS(=O)(=O)CC1 | 294 to 296 °C |
| COc1cc(OC)cc(C(=O)c2c(N)sc3c2CCC(C)C3)c1 (stereo unspecified) | 162 to 164 °C |
| Cc1cc(C)c(C(=O)O)c(=O)[nH]1 | 234 to 236 °C |
| CC(C)CNS(=O)(=O)c1ccc(C#N)cc1 | 99 to 101 °C |
| Ic1ccc(OCc2cccnc2)cc1 | 72 to 74 °C |

| SMILES | melting point |
| --- | --- |
| N#CCN1CCC(=O)CC1 | 91 to 93 °C |
| Cc1nc[nH]n1 | 89 to 91 °C |
| CS(=O)(=O)Nc1ccc(N)c(Cl)c1 | 129 to 131 °C |
| c1cc(OCC2CO2)c2cc[nH]c2c1 (stereo unspecified) | 52 to 54 °C |
| COc1ccc(C=O)cc1OCC(C)C | 40 to 42 °C |
| O=C1CCCc2c(Cl)sc(Cl)c21 | 37 to 39 °C |
| Cc1sc(N)nc1-c1cccc([N+](=O)[O-])c1 | 175 to 177 °C |
| Cn1cnc(-c2ccc(F)cc2)c1N | 148 to 150 °C |
| O=C(Nc1nccs1)OCC(F)(F)F | 167 to 169 °C |
| CCCOc1ccc2[nH]cc(CO)c2c1 | 89 to 91 °C |
| COc1cc(C)c(C=O)cc1OC | 70 to 72 °C |
| COc1ccccc1Nc1nc(N)nc(CCl)n1 | 160 to 162 °C |
| CCCS(=O)(=O)Nc1cc(N)c(F)cc1F | 95 to 97 °C |
| N#CCc1nc2cc(F)ccc2s1 | 133 to 135 °C |
| CC(C)(C)c1ccc2cc(C(=O)O)[nH]c2c1 | 157 to 159 °C |
| N#CCCCS(=O)(=O)c1ccc(C(=O)O)cc1 | 195 to 197 °C |
| N#Cc1cc(-c2ccccc2)c(-c2ccccc2)nc1Cl | 129 to 131 °C |
| OC(C1CCCCN1)C(F)(F)F (stereo unspecified) | 94 to 96 °C |
| O=C(c1ccc(Br)c([N+](=O)[O-])c1)N1CCOCC1 | 114 to 116 °C |
| O=S(=O)(Cl)c1ccc(S(F)(F)(F)(F)F)cc1 | 82 to 84 °C |
| NS(=O)(=O)c1cc(C(=O)O)cc2c1CCC2 | 299 to 301 °C |
| Nc1ccc(S(=O)(=O)CC2CCCO2)cc1 (stereo unspecified) | 100 to 102 °C |
| COc1ccc(C(=O)CCCC(=O)O)cc1 | 138 to 140 °C |
| CC(C)c1ccc(Cn2nccc2N)cc1 | < 17 °C |

| SMILES | melting point |
| --- | --- |
| CN(C)c1ccc(C2NCC(CCl)O2)cc1 (stereo unspecified) | 104 to 106 °C |
| Cc1noc(C)c1S(=O)(=O)NCCC(=O)O | 105 to 118 °C |
| O=C(O)c1sc(-c2ccccc2)cc1OCc1ccccc1 | 178 to 180 °C |
| CC(C)n1ncc(C(=O)O)c1N | 109 to 111 °C |
| N#Cc1cn(-c2ccc(N)cc2)nc1N | 195 to 197 °C |
| O=Cc1ccc(-c2cccnc2)o1 | 104 to 106 °C |
| O=C(NCC1CCCNC1)Nc1cccc(F)c1 (stereo unspecified) | 123 to 125 °C |
| NNC(=O)Nc1ccc(S(N)(=O)=O)cc1 | 216 to 218 °C |
| ClCc1coc(-c2cccs2)n1 | 45 to 57 °C |
| CCOC(=O)c1cc(C)n(CC(=O)O)c1C | 86 to 88 °C |
| Cc1nn(C(C)(C)C)c(C)c1N | 54 to 56 °C |
| CC(C)(CO)NCCO | 73 to 75 °C |
| COc1cc(NC(C)=O)ccc1N | 128 to 130 °C |
| CN(C)c1nc(C=O)c(Cl)n1-c1ccc(Br)cc1 | 115 to 117 °C |
| COC(=O)COc1cc(N)c(Cl)cc1C | 88 to 90 °C |
| O=C(O)CCC(=O)Nc1sc2c(c1C(=O)NCC1CCCO1)CCCC2 (stereo unspecified) | 151 to 153 °C |
| Nc1nc2cc(Br)ccc2o1 | 172 to 174 °C |
| CCn1c(C2CCN(C(=O)OC(C)(C)C)CC2)n[nH]c1=O | 219 to 221 °C |
| C=CCNC(=O)c1ccc(N)cc1 | 78 to 80 °C |
| CC(C)N1CCC(N2CCNCC2)CC1 | 46 to 48 °C |
| CCc1cc(C#N)c(N)s1 | 61 to 63 °C |

Next, values leading:

| melting point | SMILES |
| --- | --- |
| 109 to 111 °C | O=C(O)CCNC(=O)Cc1ccccc1 |
| 64 to 66 °C | CC(C)Cc1ccc(CCC(=O)O)cc1 |
| 91 to 93 °C | O=C1CCSc2c(Cl)cccc21 |
| 143 to 145 °C | CNC(=O)CN1CCc2ccc(N)cc21 |
| 178 to 180 °C | O=C(O)c1ccc(Cl)c(S(=O)(=O)Nc2ccccc2N2CCOCC2)c1 |
| 106 to 108 °C | CC(Cl)C(=O)N1CCc2ccccc21 (stereo unspecified) |
| 242 to 244 °C | O=C(O)c1cn2ccccc2n1 |
| 79 to 81 °C | c1cnc2c(c1)CCN2 |
| 189 to 191 °C | Cc1nn(-c2ccccc2)c2nc(Cl)c(C=O)cc12 |
| 77 to 79 °C | CS(=O)(=O)CC(=O)c1ccccc1F |
| 146 to 148 °C | CC1C(=O)NCCN1C(=O)c1ccccc1 (stereo unspecified) |
| 43 to 45 °C | NC(=S)COCc1ccccc1 |
| 321 to 323 °C | O=C1COc2cc(C(=O)O)ccc2N1 |
| 109 to 111 °C | COc1ccccc1C(C)NC(=O)C(C)Cl (stereo unspecified) |
| 203 to 205 °C | CC(C)C(=O)Nc1cc2ccccc2cc1C(=O)O |
| 259 to 261 °C | O=C(O)c1n[nH]c2ccccc2c1=O |
| 87 to 89 °C | N#CCN1CCc2ccc(N)cc21 |
| 74 to 76 °C | NCc1cccc(NC(=O)c2ccccn2)c1 |
| 237 to 239 °C | COc1ccc(C(N)CC(=O)O)cc1 (stereo unspecified) |
| 160 to 162 °C | COc1ccc(C(=O)NC(=O)CCl)cc1 |
| 179 to 181 °C | O=C(O)c1cccnc1-n1ccnc1 |
| 153 to 155 °C | O=C(O)CCN1C(=O)COc2cc(Br)ccc21 |
| 189 to 191 °C | CCN1CCN(S(=O)(=O)c2ccc(Cl)c(C(=O)O)c2)CC1 |
| 198 to 202 °C | NC(=O)NC(Cc1c[nH]c2ccccc12)C(=O)O (stereo unspecified) |

| melting point | SMILES |
| --- | --- |
| 369 to 371 °C | O=C(O)c1ccc(NC2=NS(=O)(=O)c3ccccc32)cc1 |
| 157 to 159 °C | O=S(=O)(Cl)c1ccc2c(c1)Cc1ccccc1-2 |
| 104 to 106 °C | CC(C)C(Br)C(=O)NCc1ccccc1F (stereo unspecified) |
| 258 to 262 °C | CC(=O)N1CCN(S(=O)(=O)c2cccc(C(=O)O)c2)CC1 |
| 89 to 91 °C | Cc1nnc(NCC2CC2)c2ccccc12 |
| 82 to 84 °C | CC(=O)c1ccc(OCC#N)cc1 |
| 189 to 191 °C | CCSc1ccc([N+](=O)[O-])cc1C(=O)O |
| 150 to 152 °C | N#Cc1ccccc1S(=O)(=O)N1CCC(C(=O)O)CC1 |
| 89 to 91 °C | CC(C)c1ccc2c(c1)[C@@H](O)CCC2 |
| 56 to 58 °C | CC1(O)CCc2ccccc21 (stereo unspecified) |
| 163 to 165 °C | NC(=S)NCc1ccccc1 |
| 174 to 176 °C | CC1CCN(c2ccc(NC(=O)CCC(=O)O)cc2)CC1 |
| 81 to 83 °C | COc1ccc(O)c(C(=O)c2ccccc2)c1 |
| 189 to 191 °C | Nc1cccc(S(=O)(=O)N2CCNC(=O)C2)c1 |
| 145 to 147 °C | CCc1nc(C(=O)O)nn1-c1ccccc1 |
| 229 to 231 °C | Cc1ccc(-c2nn(-c3ccccc3)cc2C(=O)O)cc1 |
| 151 to 153 °C | O=C1NCCNc2ccccc21 |
| 209 to 211 °C | CN(C)C(=O)Nc1cccc(C(=O)O)c1 |
| 145 to 152 °C | O=C(O)C1CCCN(C(=O)c2ccc(Cl)cc2)C1 (stereo unspecified) |
| 149 to 151 °C | COc1cc(C(=O)O)ccc1NN |
| 89 to 91 °C | CCOc1cccc(CC(=O)O)c1 |
| 220 to 230 °C | O=C(O)c1ccc(-n2cnnn2)cc1 |
| 213 to 215 °C | Cc1ccc(C)n1-c1ccc(C(=O)O)cc1 |
| 119 to 121 °C | CNC(=O)c1cccc(CCC(=O)O)c1 |
